Results: ChEMBL document CHEMBL1151649, “Modified smear method for screening potential inhibitors of platelet aggregation from plant sources” (1985)

How the values were obtained:
Format in all cases: functional
[1] = Antiplatelet activity in Sprague-Dawley rat platelet-rich plasma assessed as minimum drug level causing inhibition of arachidonic acid-induced platelet aggregation administered 2 mins before arachidonic acid challenge by modified smear method
[2] = Antiplatelet activity in Sprague-Dawley rat platelet-rich plasma assessed as minimum drug level causing inhibition of collagen-induced platelet aggregation administered 2 mins before collagen challenge by modified smear method
[3] = Antiplatelet activity in Sprague-Dawley rat platelet-rich plasma assessed as minimum drug level causing inhibition of ADP-induced platelet aggregation administered 2 mins before ADP challenge by modified smear method

| SMILES | Activity [1] [µg/mL] | Activity [2] [µg/mL] | Activity [3] [µg/mL] |
| --- | --- | --- | --- |
| COc1ccc(Cc2nccc3cc(OC)c(OC)cc23)cc1OC [PAPAVERINE] | 10 | 25 | 100 |
| CC(=O)Oc1ccccc1C(=O)O [ASPIRIN] | 50 | 250 | 1000 |
